This is an account of results in ChEMBL document CHEMBL5614398, “A comprehensive review of new small molecule drugs approved by the FDA in 2022: Advance and prospect” (Eur J Med Chem, 2024).

Broadly, the half-life is the time needed for the level to fall by half in the phase considered. A high value points to slow decline. As usually defined, the EC50 is the concentration giving half of the maximal effect. Broadly, the IC50 is the point on the concentration scale where inhibition reaches its midpoint. By Ki is commonly meant the equilibrium dissociation constant of an inhibitor or competing ligand from its target. The term Kd denotes the free concentration of one partner at which half of the binding sites on the other are occupied at equilibrium, for simple one-to-one binding.

Data set [1] in a line: Half life in human. It is filed as ADME.
Data set [2] can be described thus: Activation of Myosin ATPase activity in bovine Cardio-myofibril. The arrangement: species or system Bos taurus.
Data set [3] addresses Structural capsid protein (Human immunodeficiency virus 1, UniProt Q76129). Kind of data set: Inhibition of HIV-1 NL4-3 monomeric capsid protein.
Data set [4] deals with T1, Receptor-type tyrosine-protein kinase FLT3 (Homo sapiens, UniProt P36888).
T1 sequence (P36888 whole entry): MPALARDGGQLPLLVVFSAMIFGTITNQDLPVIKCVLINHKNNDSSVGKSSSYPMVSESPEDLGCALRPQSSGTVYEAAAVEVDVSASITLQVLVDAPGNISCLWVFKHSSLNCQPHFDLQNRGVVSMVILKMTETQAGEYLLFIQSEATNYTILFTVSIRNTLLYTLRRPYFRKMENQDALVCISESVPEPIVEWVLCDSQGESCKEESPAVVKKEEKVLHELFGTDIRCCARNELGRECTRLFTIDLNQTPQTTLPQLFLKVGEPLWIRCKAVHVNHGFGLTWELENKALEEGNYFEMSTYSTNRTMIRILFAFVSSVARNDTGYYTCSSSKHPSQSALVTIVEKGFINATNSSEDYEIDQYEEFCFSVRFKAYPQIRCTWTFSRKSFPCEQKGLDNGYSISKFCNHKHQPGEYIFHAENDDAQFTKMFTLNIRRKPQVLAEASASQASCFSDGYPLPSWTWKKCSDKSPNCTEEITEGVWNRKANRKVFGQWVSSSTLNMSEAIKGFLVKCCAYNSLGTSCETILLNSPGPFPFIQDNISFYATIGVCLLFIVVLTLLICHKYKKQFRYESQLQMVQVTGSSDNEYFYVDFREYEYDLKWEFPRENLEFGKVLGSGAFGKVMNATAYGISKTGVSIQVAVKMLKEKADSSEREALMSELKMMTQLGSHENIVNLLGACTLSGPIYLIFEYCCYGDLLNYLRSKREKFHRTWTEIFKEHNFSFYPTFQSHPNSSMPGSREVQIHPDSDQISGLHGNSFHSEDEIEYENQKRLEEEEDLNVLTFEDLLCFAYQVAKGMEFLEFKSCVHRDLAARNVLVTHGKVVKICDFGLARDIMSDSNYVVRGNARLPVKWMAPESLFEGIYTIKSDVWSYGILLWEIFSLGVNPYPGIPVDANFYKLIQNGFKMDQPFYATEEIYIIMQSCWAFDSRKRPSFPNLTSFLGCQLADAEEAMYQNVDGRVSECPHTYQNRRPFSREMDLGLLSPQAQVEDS
Description: Inhibition of human FLT3 (unknown origin) using poly(Glu,Tyr) as substrate incubated for 2 hrs in presence of ATP by luminescence method.

Data set [5] concerns the target Tyrosine-protein kinase JAK2 (Homo sapiens, UniProt O60674). Kind of data set: Inhibition of N-terminal human recombinant JAK2 using poly(Glu,Ala,Tyr) as substrate incubated for 2 hrs in presence of ATP by luminescence method.
Data set [6] deals with GABA-A receptor; anion channel. Kind of data set: Binding affinity to GABAA receptor (unknown origin) assessed as inhibition constant. Type of data set: protein-complex assay, Homo sapiens.
Data set [7] addresses Prostaglandin E2 receptor EP2 subtype (Homo sapiens, UniProt P43116). Kind of data set: Agonist activity at human EP2 receptor expressed in HEK293 cells. Type of data set: functional, cell-based.
Data set [8] has as its target Lanosterol 14-alpha demethylase (Candida albicans (strain SC5314 / ATCC MYA-2876) (Yeast), UniProt P10613). Kind of data set: Binding affinity to Candida albicans SC5314 CYP51 assessed as dissociation constant.

Structural capsid protein, sequence (Q76129 whole entry): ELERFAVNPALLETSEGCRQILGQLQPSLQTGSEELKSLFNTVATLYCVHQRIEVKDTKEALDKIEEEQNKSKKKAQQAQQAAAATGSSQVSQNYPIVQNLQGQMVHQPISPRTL
Lanosterol 14-alpha demethylase, sequence (P10613 whole entry): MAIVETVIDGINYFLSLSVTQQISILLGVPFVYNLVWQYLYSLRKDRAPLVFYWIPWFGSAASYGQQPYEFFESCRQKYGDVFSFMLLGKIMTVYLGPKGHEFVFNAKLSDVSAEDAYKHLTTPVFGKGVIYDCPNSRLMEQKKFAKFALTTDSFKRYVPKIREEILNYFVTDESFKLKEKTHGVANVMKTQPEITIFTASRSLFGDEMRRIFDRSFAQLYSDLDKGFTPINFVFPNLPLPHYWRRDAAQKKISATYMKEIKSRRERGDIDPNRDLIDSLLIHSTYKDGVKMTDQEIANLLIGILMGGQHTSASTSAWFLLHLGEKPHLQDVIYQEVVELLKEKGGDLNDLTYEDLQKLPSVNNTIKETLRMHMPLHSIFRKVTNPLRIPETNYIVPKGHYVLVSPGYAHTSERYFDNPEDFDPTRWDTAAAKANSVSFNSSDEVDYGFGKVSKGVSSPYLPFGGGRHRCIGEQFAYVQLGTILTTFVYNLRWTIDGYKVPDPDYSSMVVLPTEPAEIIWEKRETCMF
Prostaglandin E2 receptor EP2 subtype, sequence (P43116 whole entry): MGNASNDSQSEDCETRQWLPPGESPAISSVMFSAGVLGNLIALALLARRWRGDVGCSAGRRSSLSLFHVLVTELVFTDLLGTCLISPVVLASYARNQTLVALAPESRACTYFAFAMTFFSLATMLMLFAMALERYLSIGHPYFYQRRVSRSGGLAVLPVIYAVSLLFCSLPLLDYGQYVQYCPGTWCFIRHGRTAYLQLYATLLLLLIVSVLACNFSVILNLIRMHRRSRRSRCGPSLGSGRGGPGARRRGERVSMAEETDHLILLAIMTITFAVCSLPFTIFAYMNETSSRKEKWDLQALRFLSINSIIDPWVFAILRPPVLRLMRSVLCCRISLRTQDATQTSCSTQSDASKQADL
Tyrosine-protein kinase JAK2, sequence (O60674 whole entry): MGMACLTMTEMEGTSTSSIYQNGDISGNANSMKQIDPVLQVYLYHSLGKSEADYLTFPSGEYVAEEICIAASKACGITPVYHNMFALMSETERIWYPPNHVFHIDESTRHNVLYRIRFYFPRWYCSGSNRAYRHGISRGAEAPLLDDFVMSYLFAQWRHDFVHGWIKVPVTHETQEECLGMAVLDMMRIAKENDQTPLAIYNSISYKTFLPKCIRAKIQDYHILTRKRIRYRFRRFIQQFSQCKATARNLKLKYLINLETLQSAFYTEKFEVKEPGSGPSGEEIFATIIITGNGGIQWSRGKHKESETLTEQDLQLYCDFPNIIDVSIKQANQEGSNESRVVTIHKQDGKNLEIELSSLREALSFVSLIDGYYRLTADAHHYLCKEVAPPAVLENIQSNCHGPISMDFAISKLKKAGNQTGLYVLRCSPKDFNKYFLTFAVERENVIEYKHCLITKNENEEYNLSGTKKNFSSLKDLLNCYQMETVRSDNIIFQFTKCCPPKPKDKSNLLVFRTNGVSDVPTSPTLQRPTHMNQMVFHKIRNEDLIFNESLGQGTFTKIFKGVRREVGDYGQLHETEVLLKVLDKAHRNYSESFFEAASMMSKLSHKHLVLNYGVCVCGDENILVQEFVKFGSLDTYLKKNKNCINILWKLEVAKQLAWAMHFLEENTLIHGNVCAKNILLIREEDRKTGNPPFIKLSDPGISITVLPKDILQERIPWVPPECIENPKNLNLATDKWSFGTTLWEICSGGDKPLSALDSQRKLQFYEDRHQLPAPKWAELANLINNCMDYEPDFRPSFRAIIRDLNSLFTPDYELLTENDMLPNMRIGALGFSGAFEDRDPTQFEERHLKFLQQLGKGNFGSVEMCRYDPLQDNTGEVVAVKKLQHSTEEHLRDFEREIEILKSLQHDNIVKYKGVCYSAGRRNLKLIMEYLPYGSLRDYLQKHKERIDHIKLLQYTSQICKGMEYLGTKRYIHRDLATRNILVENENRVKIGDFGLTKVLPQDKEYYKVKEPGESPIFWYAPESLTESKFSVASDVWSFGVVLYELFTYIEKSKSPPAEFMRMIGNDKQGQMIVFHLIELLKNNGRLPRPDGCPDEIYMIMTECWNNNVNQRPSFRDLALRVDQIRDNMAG

Take `Cc1[nH]c2ccccc2c1CC(=O)N[C@@H](Cc1ccccc1)C(=O)N(C)c1ccccc1`: the half-life in data set [1] is 3 min. In data set [2], `CC(C)n1c(=O)cc(N[C@@H](C)c2ccccc2)[nH]c1=O` returned an EC50 of 711 nM. For the compound `CC(C)(C#Cc1ccc(-c2ccc(Cl)c3c(NS(C)(=O)=O)nn(CC(F)(F)F)c23)c([C@H](Cc2cc(F)cc(F)c2)NC(=O)Cn2nc(C(F)(F)F)c3c2C(F)(F)[C@@H]2C[C@H]32)n1)S(C)(=O)=O`, it took 0.05 nM to reach a half-maximal effect in data set [3] (EC50). In turn, `Cn1nc(N)c2cccc(-c3cccnc3[C@H](Cc3cc(F)cc(F)c3)NC(=O)Cn3nc(C(F)(F)F)c4c3C(F)(F)[C@@H]3C[C@H]43)c21` yielded an EC50 in data set [3] of 19 nM. In data set [3], `NC(=O)c1cccc(-c2cccnc2[C@H](Cc2cc(F)cc(F)c2)NC(=O)Cn2nc(C(F)(F)F)c3c2C(F)(F)[C@@H]2C[C@H]32)c1` registered a concentration for a half-maximal effect (EC50) of 167 nM. For the compound `NC(=O)c1cccc(-c2cccnc2[C@H](Cc2cc(F)cc(F)c2)NC(=O)Cc2c[nH]c3ccc(O)cc23)c1`, in data set [3], a half-maximal effect (EC50) was put at 150 nM. Take `Cn1nc(NS(C)(=O)=O)c2cccc(-c3cccnc3[C@H](Cc3cc(F)cc(F)c3)NC(=O)Cn3nc(C(F)(F)F)c4c3C(F)(F)[C@@H]3C[C@H]43)c21`: in data set [3], the EC50 was determined as 12 nM. With `COc1cc(-c2ccnc(Nc3cccc(N(C)C)c3)n2)ccc1O`, the half-maximal inhibitory concentration (IC50) in data set [4] turned out to be 22 nM; in data set [5], 23 nM.

In turn, `Cn1nc(NS(C)(=O)=O)c2c(Cl)ccc(-c3ccc(C#CC(C)(C)S(C)(=O)=O)nc3[C@H](Cc3cc(F)cc(F)c3)NC(=O)Cn3nc(C(F)(F)F)c4c3C(F)(F)[C@@H]3C[C@H]43)c21` had an EC50 in data set [3] of 0.2 nM. Same read-out and setting: then `COc1ccc(N(C)C(=O)[C@H](Cc2ccccc2)NC(=O)Cc2c[nH]c3ccc(O)cc23)cc1`, with 52 nM. Turning to `CC(=O)[C@H]1CC[C@H]2[C@@H]3CC[C@H]4C[C@](C)(O)CC[C@]4(C)[C@H]3CC[C@]12C` [GANAXOLONE], the inhibition constant Ki in data set [6] was 790 nM. As to `CC(C)OC(=O)CNc1cccc(CN(Cc2ccc(-n3cccn3)cc2)S(=O)(=O)c2cccnc2)n1` [OMIDENEPAG ISOPROPYL], a half-maximal response in data set [7] (EC50) required 1.1 nM.

On to `O[C@@](Cn1cnnn1)(c1ccc(F)cc1F)C(F)(F)c1ccc(-c2ccc(OCC(F)(F)F)cc2)cn1` [OTESECONAZOLE], for which the Kd in data set [8] is ≤ 39 nM.
